The values that follow come from article PMC7793531 (International Journal of Molecular Sciences, 2020).

Starred links: 1 amine or outer side, 2 acyl side, 3 side chain; linkers in the order of their positions; H or OH if unused. Non-standard residues stand in square brackets, D forms with d. Residues, ends and D or L forms follow the SMILES beside them. Groups on a side chain read outwards from the residue. ξ: configuration not given here. *: point of attachment. Oic(3aξ,7aξ) = O=C(O)[C@@H]1CC2CCCCC2N1; X1 = N=C(N)NCCCC[C@H](N)CN*; Dab = NCC[C@H](N)C(=O)O; CO = O=C([*:1])[*:2]

The target of the assay is T1, VEGF-A165/NRP-1 complex (Homo sapiens, UniProt O14786).
T1 construct: purchased R&D Systems
T1 sequence (O14786 22-641 limits assumed): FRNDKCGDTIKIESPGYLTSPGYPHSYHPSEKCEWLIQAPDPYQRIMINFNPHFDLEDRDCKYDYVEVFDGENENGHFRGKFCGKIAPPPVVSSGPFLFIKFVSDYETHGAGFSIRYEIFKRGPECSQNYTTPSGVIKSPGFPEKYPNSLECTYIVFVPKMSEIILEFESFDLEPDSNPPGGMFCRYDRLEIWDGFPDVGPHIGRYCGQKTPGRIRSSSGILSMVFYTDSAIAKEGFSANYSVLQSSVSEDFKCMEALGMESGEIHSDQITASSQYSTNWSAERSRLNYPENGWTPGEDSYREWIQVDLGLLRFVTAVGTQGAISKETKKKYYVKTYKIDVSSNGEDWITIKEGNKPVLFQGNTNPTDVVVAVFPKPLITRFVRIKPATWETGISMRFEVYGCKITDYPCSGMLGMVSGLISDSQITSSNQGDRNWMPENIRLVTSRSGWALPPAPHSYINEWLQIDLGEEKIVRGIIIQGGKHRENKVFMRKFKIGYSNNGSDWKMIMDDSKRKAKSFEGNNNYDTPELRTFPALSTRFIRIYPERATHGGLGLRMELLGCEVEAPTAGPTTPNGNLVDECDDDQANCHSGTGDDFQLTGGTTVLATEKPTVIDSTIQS
The assay can be described thus: Competitive ELISA-like assay, inhibition of bt-VEGF-A165 binding to immobilized NRP-1. As to conditions: recombinant human NRP-1, bt-VEGF-A165, chemiluminescence; read-out: IC50, VEGF-A165/NRP-1 complex inhibitory effect. The procedure: Inhibitory activity of urea–peptide hybrids against VEGF-A165/NRP-1 complex formation was assessed with a screening ELISA-like assay. NRP-1 was immobilized on microplate wells by simple adsorption and urea–peptide hybrids competed for NRP-1 with biotinylated VEGF-A165 (bt-VEGF-A165). The amount of receptor bound bt-VEGF-A165 was visualized by its interaction with the streptavidin–horseradish peroxidase conjugate (strep-HRP) and the chemiluminescent substrate. The first analyzed group of compounds were analogues 1–3 with the urea bond between L1 and L2. […] The best hybrid in this group was compound 3, which had Lys^U (gDab) branching (where “g” corresponds to guanidinium group), but its IC50 value decreased only 2-fold. Therefore, we assume that no additional interactions between urea bond and the surface of the protein occurred. […] In the case of urea–peptide hybrids, the urea bond might be capable of forming additional hydrogen bonds with protein residues on the surface of NRP-1. The affinity of compounds may conceivably be affected by the colocation of the urea bond and the free amino group of hArg in the branching. In addition, for compounds 4–6, we can observe that decreasing the distance between the free amino group in the main chain and the urea bond in the branching has a positive effect on compounds’ affinity for NRP-1.
This method was previously described for NRP-1 [44, 45, 46]. Briefly, overnight coating at 4 °C of the flat bottom surface of a 96-well plate with 100 μL (200 ng/well) recombinant human NRP-1, NRP-2, VEGFR-1 or VEGFR-2 was followed by non-specific interactions blocking using 0.5% bovine serum albumin (BSA) in PBS. Next, 50 µL of urea–peptide hybrid in PBS and 50 µL (400 ng/mL) of human (bt)-VEGF-A165 in PBS containing 4 µg/mL of heparin were added respectively. Plates were incubated for 2 h at RT, and then washed and treated with streptavidin-horseradish peroxidase conjugate in PBS (1:8000). Next, 100 µL chemiluminescent substrate was added, and luminescence was quantified using Tecan Infinite F200Pro microplate reader (Männedorf, Switzerland). In a positive control (P) only (bt)-VEGF-A165 was present in wells. Not coated by receptor wells were treated as a negative control (N). Percentages of inhibition were calculated by the following formula:100% − [[(S − N)/(P − N)]∙100%](1) where S is the signal intensity measured in wells with urea–peptide hybrid. The IC50 of each urea–peptide hybrid was calculated using the nonlinear regression function with GraphPad Prism Version-5.01 (GraphPad Software, San Diego, CA, USA). Data are presented as log (inhibitor) versus normalized response-variable slope (Figure S16). Data are the means ± SEMs of two or three independent experiments, each performed in triplicate.
A general note: An ELISA detects its analyte on a solid surface through an enzyme-linked reagent.

As to `N=C(N)NCCCC[C@H](N)CNC(=O)NCC[C@H](N)C(=O)N[C@@H](CCN)C(=O)N1C2CCCCC2C[C@H]1C(=O)N[C@@H](CCCNC(=N)N)C(=O)O` (stereo partly drawn) [Compound 6, H-Dab(hArg^U)Dab-Oic-Arg-OH] (H-[Dab]([CO-X1])[Dab][Oic(3aξ,7aξ)]R-OH), the IC50 was 190 nM.
